Experimental data: US9220794B2, “Two-photon fluorescent probes for imaging of total sulfide in live cell and tissue, and quantitative estimation of total sulfide concentration using the same” (Korea University Research and Business Foundation, priority 2013, dated 2015)

Columns and labels:
[1] = system: HeLa cells; assay: Photostability of TPEF intensity in labeled HeLa cells; format: cell-based, human; settings: continuous radiation of fs-pulses for 60 minutes
Text: These findings confirm that the compound of [Chemical Formula 2-6] can measure the total sulfide concentration in living cells by the kinetic method with minimum interference from cytotoxicity and photostability.

[2] = system: HeLa cells; assay: Cell viability, CCK-8 kit; format: cell-based, human; settings: incubation condition
[3] = pH sensitivity of the fluorescence; format: physicochemical; settings: biologically relevant pH range
[4] = system: HeLa cells; assay: Kinetic estimation of total sulfide concentration in HeLa cells (TPEF); format: cell-based, human
Procedure: To quantitatively estimate the total sulfide concentration in living cells, the TPEF intensity of HeLa cells labeled with the compound of [Chemical Formula 2-6] was monitored in the absence and presence of Na2S, cysteine (Cys) and glutathione (GSH) with 20-30 minute intervals.
Since H2S and HS^− are in equilibrium and [H2S]/[HS^−]=[H^+]/Ka=0.794 in HEPES/EtOH (1/1, pH=7.2), it seems appropriate to present the total sulfide concentration ([H2S]+[HS^−]).
Kinetic experiments in HeLa cells were conducted in the same manner except that TPEF intensities from HeLa cells labeled with the compound of [Chemical Formula 2-6] upon excitation at 750 nm were monitored with 20-30 minute intervals.
The average TPEF intensities at given time and the SB2/SA1 ratio was obtained by dividing the TPEF intensity of [Chemical Formula 2-6] at 390-450 nm by that of [Chemical Formula 2-5] at 525-650 nm in the HeLa cells (FIG. 1b) were used in the kobs calculation.
The kobs value was measured at 10 regions of interest (ROIs) from three independent cell lines.
To evaluate the effect of Na2S, cysteine and GSH, HeLa cells were incubated with the compound of [Chemical Formula 2-6] (2 μM) and then treated with Na2S (100, 300 μM), cysteine (500 μM) and GSH (500 μM) for 30 minutes. The cells were then washed 3 times with FBS-free DMEM and subjected to kinetic measurement.

[5] = system: rat colon tissue; assay: Ratiometric TPM imaging (F2/F1) of rat colon slices; format: in vivo; settings: basal, slices labeled with 20 μM 2-6
Procedure: The utility of the compound of [Chemical Formula 2-6] was investigated in living tissues from a 5-week-old rat colon. The inventors were particularly interested in the mucosa, muscularis mucosae and submucosa because they are invaded in the early stage of tumor (FIG. 4c). Since it takes a long time to stain the tissues during which they may be deformed, excess amount (20 μM) of the compound of [Chemical Formula 2-6] was used to facilitate staining.
Because the structure of the colon tissue is heterogeneous, TPEF intensities were acquired from 150 sections along the z-direction at a depth of about 90-170 μm using two detection windows (1 and 2) to visualize the overall sulfide distribution.
Therefore, the sections were divided into two regions and they were assigned as mucosa (90-150 μm) and submucosa including the muscularis mucosae (151-170 μm).
(§1) Male Sprague-Dawley rats (235-265 g) were divided into two groups (5-FU and control groups). In the 5-FU group, 150 mg/kg of 5-FU (SoloPak Laboratories, Franklin Park, Ill.) were intraperitoneally injected into the rats. The rats of the control group were injected with saline. Each group consisted of 4 rats.
All the rats were injected between 9 pm and 12 midnight, were allowed free access to food and water and were housed in the same room with 8-hour cycles.
(§2) 8 hours after the intraperitoneal injection, all the rats were sacrificed. Laparotomy was performed after anesthetizing the rats.
Slices were prepared from the colon of the rats. The colon slices were cut into 2-cm long segments, opened by longitudinal incision and then treated with Dulbecco's phosphate-buffered saline (D-PBS; […]).
The colon slices were incubated with the compound of [Chemical Formula 2-6] (20 μM) in D-PBS bubbled with 95% O2 and 5% CO2 at 37° C. The colon slices were then moved to glass-bottomed dishes, washed 3 times with D-PBS and observed under a confocal multiphoton microscope.
TPEF intensities were collected using detection windows of 390-450 nm and 520-650 nm, with 110 sections at a depth of 90-150 μm (mucosa) and 40 sections at a depth of 151-170 μm (submucosa).
Then ratiometric images were constructed from the TPEF intensities collected using the two detection window. The F2/F1 ratio was expressed as mean±SD and p was set to be smaller than 0.05.

[6] = system: rat colon tissue; assay: Kinetic measurement of total sulfide in rat colon tissue slices; format: in vivo; settings: before 5-FU treatment; for total sulfide concentration in colon tissue: probe 2-6; for kobs in colon tissue: tissue labeled with 2-6
Procedure: To quantitatively estimate the total sulfide concentration, kinetic experiments were performed in the colon tissue labeled with the compound of [Chemical Formula 2-6].
as §1, §2
Kinetic experiments in rat colon tissue were performed using four colon slices obtained from four rats. Two sets of experiments were performed for each slice. In each set, TPEF intensities from 8 ROI's/section were collected at depths of 90-150 μm (mucosa) and 151-170 μm (submucosa) in the colon tissue labeled with the compound of [Chemical Formula 2-6] and averaged.
The rate constant (kobs) was measured from 7 and 3 sections of the mucosa and submucosa tissues, respectively, in order to obtain 112 kobs and 48 kobs values, respectively. The rate constant (kobs) was expressed as mean±SD and p was set to be smaller than 0.05.

[7] = One-photon absorption and emission spectra, fluorescence quantum yield; format: physicochemical; settings: for 10^−4 ε: value is ε×10^−4
Procedure: The solvatochromic effect observed for the compound of [Chemical Formula 2-6] may have resulted from the […] dipole moment.
Absorption spectra were recorded on the Hewlett-Packard 8453 diode array spectrophotometer and fluorescence spectra were obtained with the Amico-Bowman series 2 luminescence spectrometer with a 1-cm standard quartz cell.

[8] = HEPES buffer (20 mM HEPES, 100 mM KCl, pH 7.4)

COCCOCCC1(CCOCCOC)c2cc(NC(=O)OCc3ccc(N=[N+]=[N-])cc3)ccc2-c2ccc(-c3nc4ccccc4s3)cc21 [Chemical Formula 2-6]
photostability (decay of TPEF intensity) [1]: high photostability | toxicity (CCK-8 kit) [2]: negligible toxicity | pH sensitivity [3]: pH-insensitive | kobs in labeled HeLa cells ([4]; HeLa cells labeled with 2-6, no additive): 0.0 ± 0.1 s⁻¹ | total sulfide concentration ([H2S]+[HS^−]) in HeLa cells ([4]; no additive, probe 2-6): 0.0 ± 0.1 µM | average emission ratio F2/F1 ([5]; mucosa (90-150 μm)): 0.82±0.07 | average emission ratio F2/F1 ([5]; submucosa (151-170 μm)): 0.67±0.07 | total sulfide concentration in colon tissue ([6]; mucosa): 7.0 ± 2.7 µM | kobs in colon tissue ([6]; mucosa): (2.0±0.8)×10^−5 s^−1 | total sulfide concentration in colon tissue ([6]; submucosa): 3.8 ± 1.4 µM | kobs in colon tissue ([6]; submucosa): (1.1±0.5)×10^−5 s^−1 | Δλmax, shift of absorption spectrum with solvent polarity ([7]; 1,4-dioxane to HEPES buffer): 8 nm | Δλ^FImax, shift of emission spectrum with solvent polarity ([7]; 1,4-dioxane<DMF<EtOH<HEPES/EtOH (1/1)<HEPES buffer): 31 nm | Φ, fluorescence quantum yield ([7]; EtOH): 0.87 | λ^(1)max, one-photon absorption maximum ([7]; EtOH): 354 nm | λ^flmax, one-photon emission maximum ([7]; EtOH): 437 nm | 10^−4 ε ([7]; EtOH): (4.27) M^−1cm^−1 | Φ, fluorescence quantum yield ([7]; HEPES buffer): 0.013 | λ^(1)max, one-photon absorption maximum [7, 8]: 360 nm | λ^flmax, one-photon emission maximum [7, 8]: 444 nm | ε at maximum absorption ([7]; HEPES buffer, pH 7.4): 25000 M⁻¹ cm⁻¹ | Φ, fluorescence quantum yield ([7]; HEPES/EtOH (1/1)): 0.41 | λ^(1)max, one-photon absorption maximum ([7]; HEPES/EtOH (1/1)): 352 nm | λ^flmax, one-photon emission maximum ([7]; HEPES/EtOH (1/1)): 440 nm | 10^−4 ε ([7]; HEPES/EtOH (1/1)): (4.11) M^−1cm^−1 | 10^−4 ε ([7]; HEPES): (2.50) M^−1cm^−1
